Experimental data taken from patent EP0713875B1, “Sulfonamides” (F. Hoffmann-La Roche AG, priority 1994, dated 1996).

Experiments:
[1] = system: isolierten Aortenringen der Ratte; assay: Inhibition of endothelin-induced contractions in isolated rat aortic rings; format: cell-based, Wistar-Kyoto-Ratten; conditions: for Kb: Rattus norvegicus, 10 min, endothelium-denuded thoracic aorta rings, 10 min incubation with test compound, cumulative doses of Endothelin-1, text calls the values pA2 = log(DR-1)-log(antagonist concentration), read-out: Dosisverhältnis (Rechtsverschiebung) (converted)
Description: II. Hemmung Endothelin-induzierter Kontraktionen an isolierten Aortenringen der Ratte
Aus der Thoraxaorta von erwachsenen Wistar-Kyoto-Ratten wurden Ringe von 5 mm Länge herausgeschnitten. Das Endothel wurde durch leichtes Reiben der Innenfläche entfernt. Jeder Ring wurde bei 37°C in 10 ml Krebs-Henseleit-Lösung unter Begasung mit 95% O2 und 5% CO2 in ein isoliertes Bad eingetaucht. Die isometrische Spannung der Ringe wurde gemessen. Die Ringe wurden auf eine Vorspannung von 3 g gedehnt. Nach 10 Minuten Inkubation mit der Testverbindung oder Vehikel wurden kumulative Dosen von Endothelin-1 zugegeben. Die Aktivität der Testverbindung wurde ermittelt durch die zu beobachtende Rechtsverschiebung der Dosis-Wirkungskurve von Endothelin-1 in gegenwart verschiedener Konzentrationen an Antagonist. Diese Rechtsverschiebung (oder auch "dose ratio", DR) entspricht dabei dem Quotienten aus den EC50-Werten von Endothelin-1 in Gegenwart und in Abwesenheit von Antagonist, wobei der EC50-Wert die für eine halbmaximale Kontraktion erforderliche Endothelin-Konzentration bezeichnet.
Aus der "dose ratio" DR wurde mittels eines Computerprogramms für jede einzelne Dosis-Wirkungskurve der entsprechende PA2-Wert nach untenstehender Gleichung berechnet, welcher ein Mass für die Aktivität der Testverbindung darstellt. pA2 = log(DR-1)-log(Antagonist-Konzentration) [formula]
Die EC50 von Endothelin in Abwesenheit von Testverbindungen ist 0,3 nM.
Die mit Verbindungen der Formel I so erhaltenen Werte für pA2 sind in Tabelle 2 angegeben. Tabelle 2

humanen ETA-Rezeptor = target: T1, humanen ETA-Rezeptor (Homo sapiens, UniProt P25101); assay: Inhibition of endothelin binding at the recombinant ETA receptor (125I-endothelin, membranes of baculovirus-infected insect cells); conditions: concentration required to inhibit 50% of the specific binding of 125I-Endothelin; incubation 2 h at 20°C or 24 h at 4°C
T1 construct: made in house; host or cells: insect cells (baculovirus expression system); membrane preparation
T1 sequence (P25101 21-427): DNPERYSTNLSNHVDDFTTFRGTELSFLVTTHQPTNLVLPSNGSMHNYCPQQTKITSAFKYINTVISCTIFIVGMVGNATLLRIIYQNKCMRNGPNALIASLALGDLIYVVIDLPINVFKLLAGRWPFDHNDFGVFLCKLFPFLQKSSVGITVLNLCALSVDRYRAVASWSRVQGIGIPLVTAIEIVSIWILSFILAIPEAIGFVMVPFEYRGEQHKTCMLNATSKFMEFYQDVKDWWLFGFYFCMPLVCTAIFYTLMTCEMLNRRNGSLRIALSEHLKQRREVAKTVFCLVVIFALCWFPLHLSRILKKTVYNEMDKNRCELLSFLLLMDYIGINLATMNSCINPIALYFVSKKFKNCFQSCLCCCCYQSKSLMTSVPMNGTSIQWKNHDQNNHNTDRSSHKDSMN
Description: I: Hemmung der Endothelin-Bindung am recombinanten ETA-Rezeptor
Baculovirus-infizierte Insektenzellen aus einem 23 l Fermenter werden 60 Stunden nach der Infektion abzentrifugiert (3 000 x g, 15 Minuten, 4°C), in Tris-Puffer (5 mM, pH 7.4, 1 mM MgCl2) resuspendiert und erneut zentrifugiert. Nach erneuter Resuspension und Zentrifugation werden die Zellen in 800 ml des gleichen Puffers suspendiert und bei -120°C eingefroren. Der Aufbruch der Zellen erfolgt beim Auftauen der Suspension in diesem hypotonen Puffergemisch. Nach wiederholtem Gefrier/Auftau-Zyklus wird die Suspension homogenisiert und zentrifugiert (25 000 x g, 15 Minuten, 4°C). Nach Suspension in Tris-Puffer (75 mM, pH 7.4, 25mM MgCl2, 250 mM Saccharose) werden 1 ml Aliquots (Proteingehalt ca. 3.5 mg/ml) bei -85°C aufbewahrt.
Für den Bindungs-Assay werden die eingefrorenen Membranpräparate aufgetaut und nach 10 Minuten Zentrifugieren mit 25000 g bei 20°C in Assay-Puffer (50 mM Tris-Puffer pH 7.4, enthaltend 25 mM MnCl2, 1 mM EDTA und 0,5% Rinderserumalbumin) resuspendiert. […] Die Inkubation wird 2 Stunden bei 20°C oder 24 Stunden bei 4°C durchgeführt. Die Trennung von freiem und Membran-gebundenen Radioliganden wird durch Filtration über Glasfaserfilter vorgenommen.

Row | Molecule | Kb [1] [nM] | IC50 (humanen ETA-Rezeptor) [nM] | EC50 ([1]; endothelin concentration required for half-maximal contraction, without antagonist, read-out: EC50 von Endothelin in Abwesenheit von Testverbindungen) [nM]
1 | COc1ccccc1Oc1c(NS(=O)(=O)c2ccc(C)cn2)nc(N2CCOCC2)nc1OCCOC(=O)Nc1ccccn1 [Beispiel 34, Pyridin-2-yl-carbaminsäure 2-[5-(2-methoxy-phenoxy)-6-(5-methyl-pyridin-2-ylsulfonylamino)-2-morpholin-4-yl-pyrimidin-4-yloxy]-ethylester] | 0.2 | 0.3 | 
2 | COc1ccccc1Oc1c(NS(=O)(=O)c2ccc(C(C)C)cn2)nc(N2CCOCC2)nc1OCCOC(=O)Nc1ccccn1 [Beispiel 51, Pyridin-2-ylcarbaminsäure 2-[6-(5-isopropylpyridin-2-ylsulfonylamino)-5-(2-methoxy-phenoxy)-2-morpholin-4-yl-pyrimidin-4-yloxy]ethylester] | 0.631 | 0.4 | 
3 | Endothelin [reference compound] |  |  | 0.3
